Assay results: patent publication US10004701B2, “Methods and compositions for treating infection” (UNIVERSITY OF ROCHESTER, priority 2012, dated 2018)
≈ marks a conversion by molar mass, not a printed value. Where two headings read alike, the source gives them in different places.

Tests used:
E. faecium = experiment: AK assay 384-well format, Prestwick library screening; format: cell-based, Enterococcus faecium
[1] = tested on: Enterococcus faecium 824-05; experiment: MIC testing; format: cell-based; conditions: 82405; Enterococcus faecium 824-05; read-out: MIC
S. aureus DNA gyrase = molecular target: T1, S. aureus DNA gyrase (Staphylococcus aureus, UniProt P0A0K8+P20831); experiment: S. aureus DNA gyrase supercoiling assay (TopoGEN); format: biochemical
T1 construct: purchased TopoGEN
Protocol: Reactions were incubated at 37° C. for 30 min and then stopped by the addition of 10% SDS, filtered through 0.025 μm Millipore membrane filters in a 10 mM Tris-HCl buffer (pH 8), and electrophoresed in a 1% agarose TAE gel. Gels were stained with 0.5 μg/ml ethidium bromide and images were analyzed using densitometry (Image J, NIH).

S. aureus = experiment: Minimum Inhibitory Concentration (MIC) testing, terfenadine study; format: cell-based; conditions: Staphylococcus aureus, 16 h
E. cloacae = experiment: AK assay 384-well format, Prestwick library screening; format: cell-based, Enterobacter cloacae; conditions: Enterobacter cloacae, 3 h; planktonic E. cloacae; 50 μM final drug concentration; cutoff for positive-scoring molecules 3-fold increase; read-out: AK-based Prestwick Library Screening Results, E. cloacae (increase in extracellular AK activity)
[2] = tested on: A. baumannii strain 98-37-09; experiment: as above; format: cell-based, Acinetobacter baumannii; conditions: Acinetobacter baumannii, 983709, 3 h; planktonic A. baumannii; 50 μM final drug concentration; cutoff for positive-scoring molecules 3-fold increase; read-out: AK-based Prestwick Library Screening Results, A. baumannii (increase in extracellular AK activity)
[3] = tested on: S. aureus strain USA300-0114; experiment: as above; format: cell-based, Staphylococcus aureus; conditions: Staphylococcus aureus, USA300, 3 h; planktonic S. aureus; 50 μM final drug concentration; cutoff for positive-scoring molecules 3-fold increase; read-out: AK-based Prestwick Library Screening Results, S. aureus (increase in extracellular AK activity)
[4] = tested on: Pseudomonas aeruginosa PA01; experiment: MIC testing; format: cell-based
K. pneumoniae = experiment: AK assay 384-well format, Prestwick library screening; format: cell-based, Klebsiella pneumoniae; conditions: Klebsiella pneumoniae, 3 h; planktonic K. pneumoniae; 50 μM final drug concentration; cutoff for positive-scoring molecules 3-fold increase; read-out: AK-based Prestwick Library Screening Results, K. pneumoniae (increase in extracellular AK activity)
P. aeruginosa = experiment: as above; format: cell-based, Pseudomonas aeruginosa
E. coli = experiment: as above; format: cell-based, Escherichia coli; conditions: Escherichia coli, 3 h; planktonic E. coli; 50 μM final drug concentration; cutoff for positive-scoring molecules 3-fold increase; read-out: AK-based Prestwick Library Screening Results, E. coli (increase in extracellular AK activity)

T1 sequence (P0A0K8 whole entry): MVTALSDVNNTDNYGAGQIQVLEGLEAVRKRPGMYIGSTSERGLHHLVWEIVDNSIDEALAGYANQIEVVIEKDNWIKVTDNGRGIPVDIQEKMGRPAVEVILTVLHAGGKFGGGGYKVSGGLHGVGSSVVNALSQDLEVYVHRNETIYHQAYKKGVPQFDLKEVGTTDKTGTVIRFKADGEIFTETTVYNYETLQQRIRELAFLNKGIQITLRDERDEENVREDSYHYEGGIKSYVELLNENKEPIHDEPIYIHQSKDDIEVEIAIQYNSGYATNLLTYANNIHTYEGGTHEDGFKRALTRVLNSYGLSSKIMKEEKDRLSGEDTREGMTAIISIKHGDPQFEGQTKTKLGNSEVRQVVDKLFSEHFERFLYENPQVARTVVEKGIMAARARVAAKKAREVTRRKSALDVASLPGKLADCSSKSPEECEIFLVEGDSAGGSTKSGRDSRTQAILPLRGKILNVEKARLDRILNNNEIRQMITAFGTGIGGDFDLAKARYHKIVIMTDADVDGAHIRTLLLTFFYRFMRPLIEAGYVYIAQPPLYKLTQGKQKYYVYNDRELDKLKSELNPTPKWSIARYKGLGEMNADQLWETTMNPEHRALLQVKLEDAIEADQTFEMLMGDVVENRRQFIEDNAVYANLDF
T1 sequence (P20831 whole entry): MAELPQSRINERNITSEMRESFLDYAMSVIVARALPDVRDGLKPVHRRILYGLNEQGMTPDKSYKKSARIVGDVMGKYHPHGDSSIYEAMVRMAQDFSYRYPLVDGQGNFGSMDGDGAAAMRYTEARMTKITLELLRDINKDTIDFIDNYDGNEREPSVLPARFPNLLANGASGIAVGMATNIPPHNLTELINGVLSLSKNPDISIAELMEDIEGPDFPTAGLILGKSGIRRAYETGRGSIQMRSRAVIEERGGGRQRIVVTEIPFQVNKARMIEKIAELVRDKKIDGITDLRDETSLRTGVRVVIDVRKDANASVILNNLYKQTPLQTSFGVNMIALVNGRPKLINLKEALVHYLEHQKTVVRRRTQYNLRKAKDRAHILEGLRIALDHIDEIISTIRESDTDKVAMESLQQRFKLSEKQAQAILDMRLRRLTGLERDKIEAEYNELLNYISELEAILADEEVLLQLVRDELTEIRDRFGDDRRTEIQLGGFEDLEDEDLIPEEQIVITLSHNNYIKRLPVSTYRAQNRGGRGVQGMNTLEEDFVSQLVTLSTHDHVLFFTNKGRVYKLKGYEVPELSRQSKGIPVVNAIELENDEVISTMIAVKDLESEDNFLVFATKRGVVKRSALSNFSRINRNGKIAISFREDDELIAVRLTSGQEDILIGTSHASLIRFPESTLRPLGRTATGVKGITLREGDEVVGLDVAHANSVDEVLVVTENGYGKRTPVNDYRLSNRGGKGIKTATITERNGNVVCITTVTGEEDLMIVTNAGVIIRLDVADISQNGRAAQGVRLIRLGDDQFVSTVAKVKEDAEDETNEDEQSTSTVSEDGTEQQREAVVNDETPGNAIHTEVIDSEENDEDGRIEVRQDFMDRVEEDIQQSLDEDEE

SMILES	IC50 (S. aureus DNA gyrase)	MIC (S. aureus)	also measured
CCN(CC)CCOc1ccc(C(=C(Cl)c2ccccc2)c2ccccc2)cc1 [Clomiphene, clomiphene, reference compound]			activity in AK Prestwick screen (E. faecium; E. faecium, 50 μM, cutoff 3-fold increase in AK): identified; MIC [1]: 8 µg/mL (≈ 19.7 µM)
OC(CCCN1CCC(C(O)(c2ccccc2)c2ccccc2)CC1)c1ccc(F)cc1 (centres unmarked) [Compound 8, 1-(4-fluorophenyl)-4-(4-(hydroxydiphenylmethyl)piperidin-1-yl)butan-1-ol]	> 1150 µM	128 µg/mL (≈ 295 µM)	
OC(CCCN1CCC(C(O)(c2ccccc2)c2ccccc2)CC1)c1ccc(Br)cc1 (centres unmarked) [Compound 9, 1-(4-bromophenyl)-4-(4-(hydroxydiphenylmethyl)piperidin-1-yl)butan-1-ol]	> 1010 µM	32 µg/mL (≈ 64.7 µM)	
CC(C)(C)c1ccc(CCCCN2CCC(C(O)(c3ccccc3)c3ccccc3)CC2)cc1 [Compound 10, (1-(4-(4-(tert-butyl)phenyl)butyl)piperidin-4-yl)diphenylmethanol]	205 µM	8 µg/mL (≈ 17.6 µM)	
Cc1ccc(C(O)CCCN2CCC(C(O)(c3ccccc3)c3ccccc3)CC2)cc1 (centres unmarked) [Compound 14, 4-(4-(hydroxydiphenylmethyl)piperidin-1-yl)-1-(p-tolyl)butan-1-ol]	> 1160 µM	128 µg/mL (≈ 298 µM)	
COC(=O)c1ccc(C(O)CCCN2CCC(C(O)(c3ccccc3)c3ccccc3)CC2)cc1 (centres unmarked) [Compound 18, Methyl 4-(1-hydroxy-4-(4-(hydroxydiphenylmethyl)piperidin-1-yl)butyl)benzoate]	929 µM	256 µg/mL (≈ 541 µM)	
O=C(O)c1ccc(C(O)CCCN2CCC(C(O)(c3ccccc3)c3ccccc3)CC2)cc1 (centres unmarked) [Compound 19, 4-(1-hydroxy-4-(4-(hydroxydiphenylmethyl)piperidin-1-yl)butyl)benzoic acid]	> 1090 µM	> 256 µg/mL	
CC(C)(C)c1ccc(C(=O)CCN2CCC(C(O)(c3ccccc3)c3ccccc3)CC2)cc1 [Compound 21, 1-(4-(tert-butyl)phenyl)-3-(4-(hydroxydiphenylmethyl)piperidin-1-yl)propan-1-one]	198 µM	32 µg/mL (≈ 70.2 µM)	
CC(C)(C)c1ccc(CCCN2CCC(C(O)(c3ccccc3)c3ccccc3)CC2)cc1 [Compound 22, (1-(3-(4-(Tert-butyl)phenyl)propyl)piperidin-4-yl)diphenylmethanol]	211 µM	8 µg/mL (≈ 18.1 µM)	
CC(C)(C)c1ccc(CCN2CCC(C(O)(c3ccccc3)c3ccccc3)CC2)cc1 [Compound 23, (1-(4-(Tert-butyl)phenethyl)piperidin-4-yl)diphenylmethanol]	218 µM	8 µg/mL (≈ 18.7 µM)	
OC(CCCN1CCC(C(O)(c2ccccc2)c2ccccc2)CC1)c1ccc(-c2ccccc2)cc1 (centres unmarked) [Compound 25, 1-([1,1′-biphenyl]-4-yl)-4-(4-(hydroxydiphenylmethyl)piperidin-1-yl)butan-1-ol]	27.1 µM	8 µg/mL (≈ 16.3 µM)	
CC(C)(C)c1ccc(C(=O)N2CCC(C(O)(c3ccccc3)c3ccccc3)CC2)cc1 [Compound 27, (4-(tert-butyl)phenyl)(4-(hydroxydiphenylmethyl)piperidin-1-yl)methanone]	218 µM	> 256 µg/mL	
COc1ccc(CCN2CCC(C(O)(c3ccccc3)c3ccccc3)CC2)cc1 [Compound 28, (1-(4-methoxyphenethyl)piperidin-4-yl)diphenylmethanol]	> 829 µM	256 µg/mL (≈ 638 µM)	
O=[N+]([O-])c1ccc(CCN2CCC(C(O)(c3ccccc3)c3ccccc3)CC2)cc1 [Compound 29, (1-(4-nitrophenethyl)piperidin-4-yl)diphenylmethanol]	632 µM	64 µg/mL (≈ 154 µM)	
OC(c1ccccc1)(c1ccccc1)C1CCN(CCc2ccc(Br)cc2)CC1 [Compound 30, (1-(4-bromophenethyl)piperidin-4-yl)diphenylmethanol]	548 µM	16 µg/mL (≈ 35.5 µM)	
OC(c1ccccc1)(c1ccccc1)C1CCN(CCc2ccc(-c3ccccc3)cc2)CC1 [Compound 32, (1-(2-([1,1′-biphenyl]-4-yl)ethyl)piperidin-4-yl)diphenylmethanol]	179 µM		MIC (S. aureus; S. aureus, MHB, strain not given, read-out: MIC): 8 µg/mL (≈ 17.9 µM)
OC(c1ccccc1)(c1ccccc1)C1CCN(CCc2ccc(-c3ccncc3)cc2)CC1 [Compound 33, Diphenyl(1-(4-(pyridin-4-yl)phenethyl)piperidin-4-yl)methanol]	208 µM	32 µg/mL (≈ 71.3 µM)	
Nc1ccc(CCN2CCC(C(O)(c3ccccc3)c3ccccc3)CC2)cc1 [Compound 34, (1-(4-aminophenethyl)piperidin-4-yl)diphenylmethanol]	241 µM	256 µg/mL (≈ 662 µM)	
OC(c1ccccc1)(c1ccccc1)C1CCN(CCc2ccc(-c3cccnc3)cc2)CC1 [Compound 35, Diphenyl(1-(4-(pyridin-3-yl)phenethyl)piperidin-4-yl)methanol]	557 µM	32 µg/mL (≈ 71.3 µM)	
CN(C)c1ccc(CCN2CCC(C(O)(c3ccccc3)c3ccccc3)CC2)cc1 [Compound 36, (1-(4-(Dimethylamino)phenethyl)piperidin-4-yl)diphenylmethanol]	> 803 µM	256 µg/mL (≈ 617 µM)	
OC(c1ccccc1)(c1ccccc1)C1CCN(CCc2ccc(F)cc2)CC1 [Compound 38, (1-(4-Fluorophenethyl)piperidin-4-yl)diphenylmethanol]	> 855 µM	128 µg/mL (≈ 329 µM)	
CC(C)(C)c1cccc(CCN2CCC(C(O)(c3ccccc3)c3ccccc3)CC2)c1 [Compound 39, (1-(3-(Tert-butyl)phenethyl)piperidin-4-yl)diphenylmethanol]	218 µM	16 µg/mL (≈ 37.4 µM)	
CC(C)(C)c1ccc(C(O)CCCN2CCC(Cc3ccccc3)CC2)cc1 (centres unmarked) [Compound 40, 4-(4-Benzylpiperidin-1-yl)-1-(4-(tert-butyl)phenyl)butan-1-ol]	> 877 µM	64 µg/mL (≈ 169 µM)	
CC(C)(C)c1ccc(NCCCN2CCC(C(O)(c3ccccc3)c3ccccc3)CC2)cc1 [Compound 41, (1-(3-((4-(Tert-butyl)phenyl)amino)propyl)piperidin-4-yl)diphenylmethanol]	423 µM	8 µg/mL (≈ 17.5 µM)	
CC(C)(C)c1ccc(CCN2CCC(C(O)(c3ccccc3)c3ccccc3)CC2)cn1 [Compound 43, (1-(2-(6-(Tert-butyl)pyridin-3-yl)ethyl)piperidin-4-yl)diphenylmethanol]	> 777 µM	64 µg/mL (≈ 149 µM)	
OC(c1ccccc1)(c1ccccc1)C1CCN(CCc2ccc(Cl)cc2)CC1 [Compound 44, (1-(4-Chlorophenethyl)piperidin-4-yl)diphenylmethanol]	640 µM	32 µg/mL (≈ 78.8 µM)	
CCCCCCCCNC(C)C(O)c1ccc(SC(C)C)cc1 (centres unmarked) [Suloctidil, suloctidil, reference compound]			fold induction at 50 µM (E. cloacae): 0.9; fold induction at 50 µM [2]: 4.1; fold induction at 50 µM (E. faecium; Enterococcus faecium, 3 h, planktonic E. faecium, 50 μM final drug concentration, cutoff for positive-scoring molecules 3-fold increase, read-out: AK-based Prestwick Library Screening Results, E. faecium (increase in extracellular AK activity)): 5.4; fold induction at 50 µM [3]: 2; MIC [4]: did not elicit an antimicrobial response; fold induction at 50 µM (K. pneumoniae): 2.5; activity in primary and confirmatory AK screens (P. aeruginosa; P. aeruginosa, 50 μM, cutoff 3-fold increase in AK): active; fold induction at 50 µM (P. aeruginosa; Pseudomonas aeruginosa, 3 h, planktonic P. aeruginosa, 50 μM final drug concentration, cutoff for positive-scoring molecules 3-fold increase, read-out: AK-based Prestwick Library Screening Results, P. aeruginosa (increase in extracellular AK activity)): 6.8; fold induction at 50 µM (E. coli): 1.9; MIC [1]: 8 µg/mL (≈ 23.7 µM)
